# Assay results reported in patent US11261183B2, “Sulfoximine glycosidase inhibitors” (Asceneuron SA, priority 2016, dated 2022).
# How the values were obtained:
# [1] = biological target: Human O-GlcNAcase (His-Tagged hOGA) (Homo sapiens (Human), UniProt O60502); test: Human O-GlcNAcase enzyme inhibition assay; assay type: biochemical; settings: His-Tagged hOGA 20 nM, FL-GlcNAc 10 μM, 60 min, room temperature, pH 6.5; read-out: Enzymatic OGA IC50
# Procedure: Example B01: Human O-GlcNAcase enzyme inhibition assay
# 5 μl of the appropriate concentration of a solution of inhibitor in McIlvaine's Buffer (pH 6.5) in 2% DMSO (for a dose response curve calculation) is added into each well of a 384-well plate (Greiner, 781900). Then, 20 nM of His-Tagged hOGA and 10 μM of FL-GlcNAc (Fluorescein mono-beta-D-(2-deoxy-2-N-acetyl) glucopyranoside; Marker Gene Technologies Inc, M1485) were added to the 384-well plate for a final volume of 20 μl. After incubation for 60 min at room temperature, the reaction was terminated by the addition of 10 μL of stop buffer (200 mM glycine, pH 10.75).
# [2] = Protein binding in mice plasma using Rapid Equilibrium Dialysis; assay type: in vitro ADME, CD1 mice; settings: 37° C.; for fraction unbound at 5 h, 1 µM: male, CD1, mouse, plasma, pH 7.4, CD1 mouse plasma; for % fraction unbound in mouse plasma: CD1 mouse plasma, 5 hours
# Procedure: Example B04: Protein binding in mice plasma using Rapid Equilibrium Dialysis
# • CD1 Mice Plasma: pooled male, K2-EDTA ([…]2, Bioreclammation, USA • Phosphate Buffered Saline (1×PBS), pH 7.4, 100 mM (Sigma, Cat No. P4417) • RED inserts (Pierce, Cat No. 9006, 8 kDa MWCO) • Sample Analysis: LC-MS/MS Methods • Preparation of DMSO Stock Solution
# From 20 mM DMSO stock solutions of reference and test compounds, 1 mM DMSO intermediate working solutions are prepared. From 1 mM intermediate working solutions, 100 μM DMSO working solutions are prepared. • Sample Preparation Procedure:
# Selected plasma is brought from −20° C. to 37° C. using water bath before its use. Test solution is prepared by adding the DMSO working solution of the reference or test compound (2 μL; 100 μM) to the selected plasma (198 μL). Spiked plasma (200 μl) is transferred to sample compartment of RED insert placed in the teflon plate. 350 μl of 1×PBS is added in the buffer compartment of RED insert. The teflon plate is covered with sealing mat and agitated at 37° C. for 5 hours at 500 RPM in a Thermomixer. After incubation time, an aliquot of plasma (50 μl) from sample compartment is mixed with blank 1×PBS (50 μl). Similarly, an aliquot of buffer (50 μl) from buffer compartment is mixed with blank plasma (50 μl). Quenching solution (200 μL, acetonitrile containing internal standard tolbutamide (0.5 μg/mL)) is added and the resulting solutions are mixed using a vortex mixer and centrifuged (Eppendorf 5415, 13792 g). Supernatants are analyzed using a Mass Spectrometer. The sample (supernatant fraction, 5 μL) is injected into the LC-MS/MS instrument. • Chromatographic Conditions: LC-MS/MS: API 4000 LC-MS/MS Software: Analyst Version 1.6.1 Column Phenomenex Synergy 30*4.6*5μ Column Oven: 40° C. Mode: ESI Positive Injection volume: 5 μl Flow Rate: […] Buffer: 0.1% Formic acid in Water Method: Isocratic Method/Gradient Composition: A) 0.1% Formic acid in Water B) 0.1% Formic acid in Methanol
# After the concentration of free drug and total drug has been determined by LCMS/MS, percent plasma protein binding can be calculated as follows:
# [formula] Following this protocol, % fraction unbound in plasma from different species can be also measured.
# Sequence of Human O-GlcNAcase (His-Tagged hOGA) (O60502 whole entry): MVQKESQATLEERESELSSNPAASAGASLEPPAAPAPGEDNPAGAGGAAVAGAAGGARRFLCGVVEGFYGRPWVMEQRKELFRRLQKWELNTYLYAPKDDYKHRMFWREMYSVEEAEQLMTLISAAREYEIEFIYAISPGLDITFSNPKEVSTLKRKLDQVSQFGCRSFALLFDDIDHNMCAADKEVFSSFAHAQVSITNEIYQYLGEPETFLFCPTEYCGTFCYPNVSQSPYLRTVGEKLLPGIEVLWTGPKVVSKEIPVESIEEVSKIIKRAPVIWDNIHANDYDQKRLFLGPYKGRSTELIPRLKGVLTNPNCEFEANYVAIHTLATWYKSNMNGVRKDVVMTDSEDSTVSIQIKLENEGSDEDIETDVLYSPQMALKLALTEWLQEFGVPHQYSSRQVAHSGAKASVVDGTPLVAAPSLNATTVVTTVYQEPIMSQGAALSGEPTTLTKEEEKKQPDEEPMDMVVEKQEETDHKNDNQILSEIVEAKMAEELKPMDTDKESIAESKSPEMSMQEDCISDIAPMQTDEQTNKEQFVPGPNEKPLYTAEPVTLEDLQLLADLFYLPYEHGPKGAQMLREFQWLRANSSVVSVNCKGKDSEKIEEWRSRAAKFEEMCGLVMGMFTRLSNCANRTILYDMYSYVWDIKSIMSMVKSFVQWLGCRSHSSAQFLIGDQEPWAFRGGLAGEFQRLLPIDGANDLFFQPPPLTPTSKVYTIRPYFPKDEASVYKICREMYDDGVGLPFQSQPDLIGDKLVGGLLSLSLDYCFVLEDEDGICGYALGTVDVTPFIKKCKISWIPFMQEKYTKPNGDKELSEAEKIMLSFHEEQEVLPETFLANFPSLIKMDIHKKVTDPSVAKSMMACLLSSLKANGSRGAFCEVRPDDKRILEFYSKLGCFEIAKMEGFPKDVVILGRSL
Compound,IC50 [1] [µM],"fraction unbound at 5 h, 1 µM [2]",% fraction unbound in mouse plasma [2] [%]
"Cc1nc2cc(C(C)N3CCN(c4ncc(S(C)(=O)=NC(C)C)cn4)CC3)ccc2s1 (racemic) [Example 49, (isopropylimino)(methyl)(2-(4-(1-(2-methylbenzo[d]thiazol-5-yl)ethyl)piperazin-1-yl)pyrimidin-5-yl)-λ^6-sulfanone]",0.05 to 0.2,0.0545,
"CC(c1ccc2scnc2c1)N1CCN(c2ncc3c(n2)CCS(=N)(=O)C3)CC1 (racemic) [Example 59, 2-(4-(1-(benzo[d]thiazol-5-yl)ethyl)piperazin-1-yl)-6-imino-5,6,7,8-tetrahydro-6λ^4-thiopyrano[4,3-d]pyrimidine 6-oxide]",< 0.05,0.0848,
"CC(c1ccc2c(c1)OCC2)N1CCN(c2ncc3c(n2)CCS(=N)(=O)C3)CC1 (racemic) [Example 61, 2-(4-(1-(2,3-dihydrobenzofuran-6-yl)ethyl)piperazin-1-yl)-6-imino-5,6,7,8-tetrahydro-6λ^4-thiopyrano[4,3-d]pyrimidine 6-oxide]",< 0.05,0.113,
"CCN=S(C)(=O)c1cnc(N2CCN(C(C)c3ccc4sc(C)nc4c3)CC2)nc1 (racemic) [Example 48, (ethylimino)(methyl)(2-(4-(1-(2-methylbenzo[d]thiazol-5-yl)ethyl)piperazin-1-yl)pyrimidin-5-yl)-λ^6-sulfanone]",< 0.05,0.0534,
"CCS(=N)(=O)c1cnc(N2CCN(C(C)c3ccc4c(c3)OCC4)CC2)nc1 (racemic) [Example 3, (2-(4-(1-(2,3-dihydrobenzofuran-6-yl)ethyl)piperazin-1-yl)pyrimidin-5-yl)(ethyl)(imino)-λ^6-sulfanone]",< 0.05,0.25,
"CC(c1ccc2c(c1)OCC2)N1CCN(c2ccc(S(C)(=N)=O)cn2)CC1 (racemic) [Example 7, (6-(4-(1-(2,3-dihydrobenzofuran-6-yl)ethyl)piperazin-1-yl)pyridin-3-yl)(imino)(methyl)-Δ^6-sulfanone]",< 0.05,0.294,
"COCCN=S(C)(=O)c1cnc(N2CCN(C(C)c3ccc4c(c3)OCC4)CC2)nc1 (single isomer, unassigned) [Example 17]",< 0.05,0.208,
"CC(c1ccc2c(c1)OCC2)N1CCN(c2ncc(S(C)(=N)=O)cn2)CC1 (racemic) [Example 1, (2-(4-(1-(2,3-dihydrobenzofuran-6-yl)ethyl)piperazin-1-yl)pyrimidin-5-yl)(imino)(methyl)λ^6-sulfanone]",< 0.05,0.393,
"Cc1nc2cc(C(C)N3CCN(c4ncc(S(C)(=N)=O)cn4)CC3)ccc2s1 (single isomer, unassigned) [Example 51]",< 0.05,0.0838,
"Cc1nc2cc(C(C)N3CCN(c4ncc(S(C)(=N)=O)cn4)CC3)ccc2s1 (racemic) [Example 42, Imino(methyl)(2-(4-(1-(2-methylbenzo[d]thiazol-5-yl)ethyl)piperazin-1-yl)pyrimidin-5-yl)-λ^6-sulfanone]",< 0.05,0.101,
"CN=S(C)(=O)c1cnc(N2CCN(C(C)c3ccc4scnc4c3)CC2)nc1 (racemic) [Example 25, (2-(4-(1-(benzo[d]thiazol-5-yl)ethyl)piperazin-1-yl)pyrimidin-5-yl)(methyl)(methylimino)-λ^6-sulfanone]",< 0.05,0.211,
"CC(c1ccc2scnc2c1)N1CCN(c2ncc(S(C)(=N)=O)cn2)CC1 (single isomer, unassigned) [Example 36]",< 0.05,,45.51
"Cc1nc2cc(C(C)N3CCN(c4ncc(S(C)(=N)=O)cn4)CC3)ccc2s1 (single isomer, unassigned) [Example 53]",< 0.05,,12.81
"Cc1nc2cc(C(C)N3CCN(c4ccc(S(C)(=N)=O)cn4)CC3)ccc2s1 (racemic) [Example 46, imino(methyl)(6-(4-(1-(2-methylbenzo[d]thiazol-5-yl)ethyl)piperazin-1-yl)pyridin-3-yl)-λ^6-sulfanone]",< 0.05,0.115,
"CC(c1ccc2scnc2c1)N1CCN(c2ncc(S(C)(=N)=O)cn2)CC1 (single isomer, unassigned) [Example 35]",< 0.05,,33.7
"CN=S(C)(=O)c1cnc(N2CCN(C(C)c3ccc4sc(C)nc4c3)CC2)nc1 (racemic) [Example 45, methyl(2-(4-(1-(2-methylbenzo[d]thiazol-5-yl)ethyl)piperazin-1-yl)pyrimidin-5-yl)(methylimino)-λ^6-sulfanone]",< 0.05,0.214,
"CCS(=N)(=O)c1ccc(N2CCN(C(C)c3ccc4c(c3)OCC4)CC2)nc1 (racemic) [Example 6, (6-(4-(1-(2,3-dihydrobenzofuran-6-yl)ethyl)piperazin-1-yl)pyridin-3-yl)(ethyl)(imino)-λ^6-sulfanone]",< 0.05,0.261,
"CC(c1ccc2scnc2c1)N1CCN(c2ccc(S(C)(=N)=O)cn2)CC1 (racemic) [Example 26, (6-(4-(1-(benzo[d]thiazol-5-yl)ethyl)piperazin-1-yl)pyridin-3-yl)(imino)(methyl)-λ^6-sulfanone]",< 0.05,0.18,
"CC(c1ccc2scnc2c1)N1CCN(c2ccc(S(C)(=N)=O)cc2)CC1 (racemic) [Example 33, (4-(4-(1-(benzo[d]thiazol-5-yl)ethyl)piperazin-1-yl)phenyl)(imino)(methyl)-λ^6-sulfanone]",0.05 to 0.2,0.132,
